What was measured:
Type in all cases: in vivo
[1] = test system: barnyardgrass (Echinochloa crus-galli); assay: Test C postemergence; settings: scale 0 to 100, 0 no effect, 100 complete control
Method in brief: (§1)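 Assessment: visual, 13–15 d after treatment, 0 (no effect) to 100 (complete control) relative to controls. Treatment: preemergence to seeds in loam-sand soil, or postemergence to 1- to 4-leaf plants in peat-based medium. Formulation: non-phytotoxic solvent mixture with surfactant.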

[2] = test system: corn (Zea mays); assay: Test C postemergence; settings: scale 0 to 100, 0 no effect, 100 complete control
Method in brief: as §1

[3] = test system: pigweed (Amaranthus retroflexus); assay: Test C postemergence; settings: scale 0 to 100, 0 no effect, 100 complete control
Method in brief: as §1

[4] = test system: velvetleaf (Abutilon theophrasti); assay: Test C postemergence; settings: scale 0 to 100, 0 no effect, 100 complete control
Method in brief: as §1

[5] = test system: crabgrass, large (large crabgrass, Digitaria sanguinalis); assay: Test C postemergence; settings: scale 0 to 100, 0 no effect, 100 complete control
Method in brief: as §1

[6] = test system: foxtail, giant (giant foxtail, Setaria faberii); assay: Test C postemergence; settings: scale 0 to 100, 0 no effect, 100 complete control
Method in brief: as §1

[7] = test system: barnyardgrass (Echinochloa crus-galli); assay: Test C preemergence; settings: for Plant response rating, Barnyardgrass: scale 0 to 100, 0 no effect, 100 complete control
Method in brief: as §1

[8] = test system: corn (Zea mays); assay: Test C preemergence; settings: for Plant response rating, Corn: scale 0 to 100, 0 no effect, 100 complete control
Method in brief: as §1

[9] = test system: ryegrass, Italian (Italian ryegrass, Lolium multiflorum); assay: Test C preemergence; settings: for Plant response rating, Ryegrass, Italian: scale 0 to 100, 0 no effect, 100 complete control
Method in brief: as §1

[10] = test system: johnsongrass (Sorghum halepense); assay: Test C preemergence; settings: for Plant response rating, Johnsongrass: scale 0 to 100, 0 no effect, 100 complete control
Method in brief: as §1

[11] = test system: soybean (Glycine max); assay: Test C preemergence; settings: for Plant response rating, Soybean: scale 0 to 100, 0 no effect, 100 complete control
Method in brief: as §1

[12] = test system: pigweed (Amaranthus retroflexus); assay: Test C preemergence; settings: for Plant response rating, Pigweed: scale 0 to 100, 0 no effect, 100 complete control
Method in brief: as §1

[13] = test system: wheat (winter wheat, Triticum aestivum); assay: Test C preemergence; settings: for Plant response rating, Wheat: scale 0 to 100, 0 no effect, 100 complete control
Method in brief: as §1

[14] = test system: lambsquarters (Chenopodium album); assay: Test C preemergence; settings: for Plant response rating, Lambsquarters: scale 0 to 100, 0 no effect, 100 complete control
Method in brief: as §1

[15] = test system: waterhemp (common waterhemp, Amaranthus rudis); assay: Test C preemergence; settings: for Plant response rating, Waterhemp: scale 0 to 100, 0 no effect, 100 complete control
Method in brief: as §1

[16] = test system: velvetleaf (Abutilon theophrasti); assay: Test C preemergence; settings: for Plant response rating, Velvetleaf: scale 0 to 100, 0 no effect, 100 complete control
Method in brief: as §1

[17] = test system: oilseed rape (Brassica napus); assay: Test C preemergence; settings: for Plant response rating, Oilseed Rape: scale 0 to 100, 0 no effect, 100 complete control
Method in brief: as §1

[18] = test system: crabgrass, large (large crabgrass, Digitaria sanguinalis); assay: Test C preemergence; settings: for Plant response rating, Crabgrass, Large: scale 0 to 100, 0 no effect, 100 complete control
Method in brief: as §1

[19] = test system: ragweed (common ragweed, Ambrosia elatior); assay: Test C preemergence; settings: for Plant response rating, Ragweed: scale 0 to 100, 0 no effect, 100 complete control
Method in brief: as §1

[20] = test system: Galium (catchweed bedstraw, Galium aparine); assay: Test C preemergence; settings: for Plant response rating, Galium: scale 0 to 100, 0 no effect, 100 complete control
Method in brief: as §1

[21] = test system: foxtail, giant (giant foxtail, Setaria faberii); assay: Test C preemergence; settings: for Plant response rating, Foxtail, Giant: scale 0 to 100, 0 no effect, 100 complete control
Method in brief: as §1

[22] = test system: morningglory (Ipomoea coccinea); assay: Test C preemergence; settings: for Plant response rating, Morningglory: scale 0 to 100, 0 no effect, 100 complete control
Method in brief: as §1

[23] = 31 g ai/ha, 0 is no effect, 100 is complete control

CN1C[C@H](c2ccc(F)c(F)c2)[C@@H](C(=O)Nc2ccccc2F)C1=O [Compound 596, (3S,4S)-4-(3,4-difluorophenyl)-N-(2-fluorophenyl)-1-methyl-2-oxo-3-pyrrolidinecarboxamide]
Plant response rating, Barnyardgrass ([1]; 31 g ai/ha): 0
Plant response rating, Barnyardgrass ([1]; 62 g ai/ha): 30
Plant response rating, Barnyardgrass ([1]; 125 g ai/ha): 45
Plant response rating, Barnyardgrass ([1]; 250 g ai/ha): 65
Plant response rating, Corn ([2]; 31 g ai/ha): 0
Plant response rating, Corn ([2]; 62 g ai/ha): 0
Plant response rating, Corn ([2]; 125 g ai/ha): 0
Plant response rating, Corn ([2]; 250 g ai/ha): 10
Plant response rating, Pigweed ([3]; 31 g ai/ha): 10
Plant response rating, Pigweed ([3]; 62 g ai/ha): 10
Plant response rating, Pigweed ([3]; 125 g ai/ha): 35
Plant response rating, Pigweed ([3]; 250 g ai/ha): 30
Plant response rating, Velvetleaf ([4]; 31 g ai/ha): 35
Plant response rating, Velvetleaf ([4]; 62 g ai/ha): 35
Plant response rating, Velvetleaf ([4]; 125 g ai/ha): 50
Plant response rating, Velvetleaf ([4]; 250 g ai/ha): 55
Plant response rating, Crabgrass, Large ([5]; 31 g ai/ha): 30
Plant response rating, Crabgrass, Large ([5]; 62 g ai/ha): 65
Plant response rating, Crabgrass, Large ([5]; 125 g ai/ha): 65
Plant response rating, Crabgrass, Large ([5]; 250 g ai/ha): 75
Plant response rating, Foxtail, Giant ([6]; 31 g ai/ha): 10
Plant response rating, Foxtail, Giant ([6]; 62 g ai/ha): 20
Plant response rating, Foxtail, Giant ([6]; 125 g ai/ha): 50
Plant response rating, Foxtail, Giant ([6]; 250 g ai/ha): 80
Plant response rating (scale of 0 to 100), Barnyardgrass [7, 23]: 90
Plant response rating, Barnyardgrass ([7]; 62 g ai/ha): 95
Plant response rating, Barnyardgrass ([7]; 125 g ai/ha): 95
Plant response rating, Barnyardgrass ([7]; 250 g ai/ha): 95
Plant response rating (scale of 0 to 100), Corn [8, 23]: 0
Plant response rating, Corn ([8]; 62 g ai/ha): 0
Plant response rating, Corn ([8]; 125 g ai/ha): 0
Plant response rating, Corn ([8]; 250 g ai/ha): 35
Plant response rating (scale of 0 to 100), Ryegrass, Italian [9, 23]: 0
Plant response rating, Ryegrass, Italian ([9]; 62 g ai/ha): 0
Plant response rating, Ryegrass, Italian ([9]; 125 g ai/ha): 30
Plant response rating, Ryegrass, Italian ([9]; 250 g ai/ha): 45
Plant response rating (scale of 0 to 100), Johnsongrass [10, 23]: 20
Plant response rating, Johnsongrass ([10]; 62 g ai/ha): 25
Plant response rating, Johnsongrass ([10]; 125 g ai/ha): 70
Plant response rating, Johnsongrass ([10]; 250 g ai/ha): 75
Plant response rating (scale of 0 to 100), Soybean [11, 23]: 0
Plant response rating, Soybean ([11]; 62 g ai/ha): 0
Plant response rating, Soybean ([11]; 125 g ai/ha): 0
Plant response rating, Soybean ([11]; 250 g ai/ha): 100
Plant response rating (scale of 0 to 100), Pigweed [12, 23]: 20
Plant response rating, Pigweed ([12]; 62 g ai/ha): 25
Plant response rating, Pigweed ([12]; 125 g ai/ha): 40
Plant response rating, Pigweed ([12]; 250 g ai/ha): 55
Plant response rating (scale of 0 to 100), Wheat [13, 23]: 15
Plant response rating, Wheat ([13]; 62 g ai/ha): 45
Plant response rating, Wheat ([13]; 125 g ai/ha): 50
Plant response rating, Wheat ([13]; 250 g ai/ha): 70
Plant response rating (scale of 0 to 100), Lambsquarters [14, 23]: 10
Plant response rating, Lambsquarters ([14]; 62 g ai/ha): 60
Plant response rating, Lambsquarters ([14]; 125 g ai/ha): 70
Plant response rating, Lambsquarters ([14]; 250 g ai/ha): 75
Plant response rating (scale of 0 to 100), Waterhemp [15, 23]: 0
Plant response rating, Waterhemp ([15]; 62 g ai/ha): 0
Plant response rating, Waterhemp ([15]; 125 g ai/ha): 25
Plant response rating, Waterhemp ([15]; 250 g ai/ha): 65
Plant response rating (scale of 0 to 100), Velvetleaf [16, 23]: 10
Plant response rating, Velvetleaf ([16]; 62 g ai/ha): 20
Plant response rating, Velvetleaf ([16]; 125 g ai/ha): 30
Plant response rating, Velvetleaf ([16]; 250 g ai/ha): 55
Plant response rating (scale of 0 to 100), Oilseed Rape [17, 23]: 0
Plant response rating, Oilseed Rape ([17]; 62 g ai/ha): 0
Plant response rating, Oilseed Rape ([17]; 125 g ai/ha): 30
Plant response rating, Oilseed Rape ([17]; 250 g ai/ha): 90
Plant response rating (scale of 0 to 100), Crabgrass, Large [18, 23]: 95
Plant response rating, Crabgrass, Large ([18]; 62 g ai/ha): 100
Plant response rating, Crabgrass, Large ([18]; 125 g ai/ha): 100
Plant response rating, Crabgrass, Large ([18]; 250 g ai/ha): 100
Plant response rating (scale of 0 to 100), Ragweed [19, 23]: 10
Plant response rating, Ragweed ([19]; 62 g ai/ha): 20
Plant response rating, Ragweed ([19]; 125 g ai/ha): 50
Plant response rating, Ragweed ([19]; 250 g ai/ha): 75
Plant response rating (scale of 0 to 100), Galium [20, 23]: 30
Plant response rating, Galium ([20]; 62 g ai/ha): 85
Plant response rating, Galium ([20]; 125 g ai/ha): 40
Plant response rating, Galium ([20]; 250 g ai/ha): 85
Plant response rating (scale of 0 to 100), Foxtail, Giant [21, 23]: 90
Plant response rating, Foxtail, Giant ([21]; 62 g ai/ha): 90
Plant response rating, Foxtail, Giant ([21]; 125 g ai/ha): 95
Plant response rating, Foxtail, Giant ([21]; 250 g ai/ha): 100
Plant response rating (scale of 0 to 100), Morningglory [22, 23]: 0
Plant response rating, Morningglory ([22]; 62 g ai/ha): 0
Plant response rating, Morningglory ([22]; 125 g ai/ha): 10
Plant response rating, Morningglory ([22]; 250 g ai/ha): 20
